The results in this text go back to patent US20170184604A1, “DD1ALPHA RECEPTOR AND USES THEREOF IN IMMUNE DISORDERS” (THE GENERAL HOSPITAL CORPORATION, priority 2014, published 2017).

For one test, the system named is naïve CD4+CD62L+ T cells. The test can be described thus: iTreg cell development assay. The class given is cell-based, mouse. The settings on record: for frequency of Foxp3+CD4+ T cells (iTreg): anti-CD3 and anti-CD28. Here is the method:
Enriched human CD4+ T cells and CD8+ T cells were stained with CFSE (1 μM) and stimulated with plate-bound anti-CD3 antibody (3 μg/ml) together with 2, 5, or 10 μg/ml of DD1α-Ig proteins or control Ig proteins. The proliferations of CD4+ T or CD8+ T cells were determined by the percentages of CFSE-labeled CD4+ T or CD8+ T cells at the 72-hour culture. The levels of cytokines IFN-γ and TNF-α in culture supernatant were analyzed by ELISA at the 48-hour culture. […] The proliferation and cytokine production of CD4+ T cells were determined as FIG. 5A. […] The proliferations of CD4+ T cells were determined by percentage of CFSE-diluted CD4+ cells on day 3. The levels of cytokines IFN-γ and IL-2 in culture supernatant were analyzed by ELISA on day 2. […] Data are shown as mean±SD and representative of three experiments.
The cell culture plates were coated with anti-CD3 (145-2C11, eBioscience) together with mDD1α-Ig, mPD-L1-Ig or control Ig proteins. CD4+CD62L+naïve T cells were purified from splenocytes freshly isolated from Wt mice using CD4+CD62L+ T Cell Isolation Kit II (Miltenyi Biotec) and cultured in complete RPMI-1640 media added by anti-CD28 (37.51, eBioscience) and TGF-β (BioLegend) on the anti-CD3 & Ig proteins-coated plates. On day 3, cells were stained with anti-CD4-APC (RM4-5, eBioscience) and anti-mouse Foxp3-PE (FJK-16s, eBioscience) and analyzed for Foxp3 expression on CD4+ T cells by flow cytometry.

A further test addresses T1, PD-1 (Homo sapiens, UniProt Q15116).
T1 construct: full length human PD-1 and Tim3 cDNA (Sino biological) were cloned into pcDNA3.1(−) tagged with HA at C-terminus; host or cells: HEK293T
The experiment in a line: Ig fusion protein-pull down assay. The class given is binding. As to the method:
FIGS. 6A-6E show physical association of DD1α with PD1 but not with PD-L1. (FIG. 6A) Interaction of DD1α with PD1 or DD1α. […] The bound Ig fusion proteins were detected with anti-Ig-APC. Empty vector (pcDNA3.1)-transfected cells stained with Ig proteins are shown as a negative control (gray filled) and other staining is shown as black open. (FIG. 6B) DD1α binds to both DD1α and PD1 on CD4+ T cells. Purified CD4+ T cells from Wt and DD1α−/− mice were assayed for binding to Ig fused DD1α or PD1 proteins. Cells were incubated with DD1α-Ig (open), PD1-Ig (open), or control Ig proteins (gray filled) and the bound Ig fusion proteins were detected by anti-Ig-APC. […] The bound Ig fusion proteins were detected by anti-Ig-APC. Binding amounts were determined by percentage of APC positive cells compared to control Ig protein-bound cells. (FIG. 6C) Ig-pulldown experiments show DD1α interaction with both DD1α and PD1. […] The bead bound proteins were eluted and determined by western blot analysis using anti-HA antibody (asterisks). […] The bead bound proteins were eluted and detected by western blot analysis with anti-DD1α or anti-PD1 antibody (asterisk). […] The levels of indicated proteins were analyzed by western blot analysis. Total RNAs from control siRNA or p53 siRNA transfected MCF7 cells were assessed for mRNA levels of PD1 or PD-L1 by real-time quantitative PCR. […]

T1 sequence (Q15116 25-288): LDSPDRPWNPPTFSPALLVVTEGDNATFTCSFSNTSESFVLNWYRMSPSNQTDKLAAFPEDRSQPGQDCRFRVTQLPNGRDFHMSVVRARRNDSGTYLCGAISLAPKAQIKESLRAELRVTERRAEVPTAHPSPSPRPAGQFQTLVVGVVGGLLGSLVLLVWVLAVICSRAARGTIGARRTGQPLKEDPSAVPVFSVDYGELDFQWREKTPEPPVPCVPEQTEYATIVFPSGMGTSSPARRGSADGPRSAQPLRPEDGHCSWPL

In the case of “DD1α-Ig: the extracellular region of DD1α fused with the immunoglobulin G Fc segment”, in the test on naïve CD4+CD62L+ T cells (alone without TGF-β), the iTreg cell generation result was “did not affect”. Further, the “frequency of Foxp3+CD4+ T cells (iTreg)” value in the test with naïve CD4+CD62L+ T cells (1 ng/ml TGF-β, control Ig 14.2%) was 31.4%; in the test with naïve CD4+CD62L+ T cells (2 ng/ml TGF, control Ig 32.6%), 51.7%. The iTreg cell development entry in the test with naïve CD4+CD62L+ T cells (in the presence of TGF-β) was “significantly enhanced”. The “pull down of PD-1” value with PD-1 (lysates from transfected 293T cells) is reported as “pulled down”. The “pull down of endogenous PD-1” value with PD-1 (lysates of Nutlin-3-treated MCF7 cells) was “found”.
